{
  "source": "patent US20180303853A1",
  "about": "“COMPOSITIONS AND METHODS FOR TREATING BACTERIAL INFECTIONS USING CEFTAROLINE” (priority 2017, published 2018)",
  "key": {"[1]": {"experiment": "Example 5 CAP study, safety", "procedure": "Study drug: Ceftaroline fosamil was administered in two consecutive 300 mg intravenous (IV) infusions over 30 minutes, every 12 hours (q12h). The 600-mg dose of ceftaroline fosamil infused over 60 minutes was split into two infusions in order to maintain the blind. For subjects with moderate renal impairment (30 mL/min<CrCl≤50 mL/min), as estimated by the Cockroft-Gault formula, unblinded pharmacy staff or unblinded study staff could adjust the dose of ceftaroline fosamil to two consecutive 200 mg infusions and readjust dose to two 300 mg infusions when renal function improved (CrCl>50 mL/min). The duration of treatment was between 5 to 7 days.\nAll subjects initially received two doses (500 mg every 12 hours) of oral adjunctive therapy with clarithromycin following randomization.\nAll subjects who received any amount of study drug were included in the safety analysis. Safety measures included monitoring for adverse events (AE) up to TOC and serious adverse events (SAE) through LFU; recording vital signs, physical examination, electrocardiogram (ECG), and clinical laboratory findings (clinical chemistry, hematology, and urinalysis); at prespecified times throughout the study."}, "[2]": {"settings": "human, in vivo", "experimental": "The pharmacokinetics of ceftaroline were evaluated in adolescent patients (ages 12 to 17) with normal renal function.\nNo dose adjustment is required based on gender."}, "[3]": {"system": "community-acquired pneumonia (CAP)", "experiment": "Example 4 Phase 3 study, ceftaroline vs ceftriaxone in CAP, efficacy", "format": "in vivo, human", "description": "The secondary objectives of the study were to evaluate the following: clinical response at end-of-therapy (EOT); the microbiological favorable outcome rate at TOC; the overall (clinical and radiographic) success rate at TOC; the clinical and microbiological response by pathogen at TOC; clinical relapse at late follow-up (LFU); microbiological reinfection/recurrence at LFU; and safety.\nThe following criteria were used for evaluation: The primary efficacy outcome measures were the pet-subject clinical cure rate at test-of-cure (TOC) in the CE and MITTE Populations Subjects were considered clinically cured at TOC if they had total resolution of all signs and symptoms of the baseline infection, or improvement of the infection such that no further antimicrobial therapy was necessary.\nNon-inferiority was concluded if the lower limit of the 95% CI was higher than −10%."}, "MDRSP": {"system": "MDRSP", "experiment": "Example 5 CAP study, outcome by baseline pathogen", "format": "in vivo, S. pneumoniae", "description": "Per-pathogen clinical cure rate and favorable microbiological outcome rate at TOC in the mMITTE and ME Populations;"}, "[4]": {"system": "CYP1A2, CYP2B6, CYP2C8, CYP2C9, CYP2CI9, or CYP3A4/5", "experiment": "CYP induction in human hepatocytes", "format": "in vitro ADME"}, "[5]": {"system": "complicated skin and skin structure infections (cSSSI)", "experiment": "Two Phase 3 studies in cSSSI, clinical cure at TOC", "format": "in vivo, human", "settings": "co-primary CE and MITT populations", "experimental": "A total of 1396 adults with clinically documented complicated skin and skin structure infections (cSSSI) were enrolled in two randomized, multi-center, multinational, double-blind, studies comparing 600 mg ceftaroline fosamil administered intravenously over 1 hour every 12 hours to vancomycin plus aztreonam [1 g vancomycin administered intravenously over 1 hour followed by 1 g aztreonam administered intravenously over 1 hour every 12 hours]. Patients with cSSSI (deep/extensive cellulitis, a major abscess, a wound infection [surgical or traumatic], infected insect bites, burns or ulcers, lower extremity infection in patients with diabetes mellitus or peripheral vascular disease), were enrolled in the studies. Treatment duration was […] days. A switch to oral therapy was not allowed. The Modified Intent-to-Treat (MITT) population included all patients who received any amount of study drug according to their randomized treatment group.\nThe primary efficacy endpoint was clinical response at the Test of Cure (TOC) visit in the co-primary CE and MITT populations (Table 2). […] In a subgroup analysis (CE population), the comparative clinical cure rates between the ceftaroline group and the vancomycin plus aztreonam group were not affected by age, gender, race, ethnicity, or weight."}},
  "data": [
    {"smiles": "CCO/N=C(\\C(=O)N[C@@H]1C(=O)N2C(C(=O)[O-])=C(Sc3nc(-c4cc[n+](C)cc4)cs3)CS[C@H]12)c1nsc(N)n1", "note": "[Ceftaroline, ceftaroline]", "values": [
      {"measurement": "hemolytic anemia", "setting": "[1]", "result": "No evidence of hemolytic anemia"},
      {"measurement": "percentage of deaths", "setting": "[1]", "result": 1.7, "unit": "%"},
      {"measurement": "AUC higher in female vs male subjects (trend)", "setting": "[2]; both", "result": "6-15%"},
      {"measurement": "Cmax higher in female vs male subjects (trend)", "setting": "[2]; both", "result": "17-22%"},
      {"measurement": "mean recovery in the dialysate, share of the administered dose", "setting": "[2]; 4 h", "result": 21.6, "unit": "%"},
      {"measurement": "mean AUC higher than in healthy young adults (18-45 years)", "setting": "[2]; iv, 600 mg", "result": "~33", "unit": "%"},
      {"measurement": "Difference (ceftaroline minus ceftriaxone), Clinical Cure Rate at EOT", "setting": "[3]; Example 4, CE", "result": 6.0, "unit": "%"},
      {"measurement": "Difference (ceftaroline minus ceftriaxone), Clinical Success at TOC", "setting": "[3]; Example 4, CE", "result": 4.9, "unit": "%"},
      {"measurement": "Clinical Success at the TOC Visit", "setting": "[3]; Example 4, CE population", "result": "193 (82.1) %"},
      {"measurement": "Per-subject Clinical Cure Rate at the EOT Visit", "setting": "[3]; Example 4, CE population", "result": "202 (86.0) %"},
      {"measurement": "Difference (ceftaroline minus ceftriaxone), Favorable Microbiological Outcome at TOC", "setting": "[3]; Example 4, ME", "result": 1.8, "unit": "%"},
      {"measurement": "Favorable Microbiological Outcome at the TOC Visit", "setting": "[3]; Example 4, ME population", "result": "72 (84.7) %"},
      {"measurement": "Difference (ceftaroline minus ceftriaxone), Clinical Cure Rate at EOT", "setting": "[3]; Example 4, MITTE", "result": 7.4, "unit": "%"},
      {"measurement": "Difference (ceftaroline minus ceftriaxone), Clinical Success at TOC", "setting": "[3]; Example 4, MITTE", "result": 5.9, "unit": "%"},
      {"measurement": "Clinical Success at the TOC Visit", "setting": "[3]; Example 4, MITTE population", "result": "235 (81.3) %"},
      {"measurement": "Per-subject Clinical Cure Rate at the EOT Visit", "setting": "[3]; Example 4, MITTE population", "result": "249 (86.2) %"},
      {"measurement": "Difference (ceftaroline minus ceftriaxone), Favorable Microbiological Outcome at TOC", "setting": "[3]; Example 4, mMITTE", "result": 0.4, "unit": "%"},
      {"measurement": "Favorable Microbiological Outcome at the TOC Visit", "setting": "[3]; Example 4, mMITTE population", "result": "74 (82.2) %"},
      {"measurement": "Favorable Microbiological Outcome at TOC by Baseline Pathogen", "setting": "MDRSP; Example 5, ME", "result": "2/2 (100.0)"},
      {"measurement": "Clinical Cure Rate at the TOC Visit by Baseline Pathogen", "setting": "MDRSP; Example 5, ME Population", "result": "2/2 (100.0)"},
      {"measurement": "induction of CYP isoenzymes", "setting": "[4]", "result": "not inducers"},
      {"measurement": "clinical response at TOC, comparison with comparator", "setting": "[5]", "result": "non-inferior to vancomycin plus aztreonam"}
    ]}
  ]
}
